Laboratory results as given in US9926318B2, “Tetracyclic autotaxin inhibitors” (PharmAkea, Inc., priority 2013, dated 2018).

Molecular target: human autotaxin (ATX) (Homo sapiens (Human), UniProt Q13822)
Assay: Human autotaxin assay (choline release from LPC, Hep3B conditioned media)
Assay type: biochemical
Settings: concentrated conditioned media from Hep3B cells, LPC substrate
Procedure: ATX activity is assayed in concentrated conditioned media from Hep3B human hepatocellular carcinoma cells by measuring the amount of choline released from the substrate, lysophosphatidylcholine (LPC) as it is cleaved to LPA. Conditioned media is collected from confluent Hep3B cells and concentrated 20-fold using Centriprep-30 filter devices (Millipore). […] 100 μl of a color mix containing 4.5 mM 4-aminoantipyrine, 2.7 mM N-ethyl-N-(2-hydroxy-3-sulfopropyl)-m-toluidine, 21 units/ml horseradish peroxidase and 3 units/ml choline oxidase in 50 mM Tris, pH 8, 4.5 mM MgCl2 is added and the incubation continued for 15 minutes at room temperature before reading the absorbance at 555 nm.

Row | IC50 [nM] | Structure (SMILES)
1 | < 500 | O=C1NC(=O)N2Cc3c(c4cccnc4n3Cc3ccc(F)cc3)CC12 (stereo not drawn) [Compound C109]
2 | < 500 | CC1(C)c2c(n(Cc3ccc(F)cc3)c3ccccc23)CN2C(=O)NC(=O)C21 (racemic) [Compound A110, 6-(4-fluorobenzyl)-11,11-dimethyl-5,6,11,11a-tetrahydro-1H-imidazo[1′,5′:1,6]pyrido[3,4-b]indole-1,3(2H)-dione]
3 | > 1000 | O=C(O)CCN1C(=O)[C@@H]2Cc3c(n(Cc4ccc(F)cc4)c4ccccc34)CN2C1=S [Compound E1, (S)-3-(6-(4-fluorobenzyl)-1-oxo-3-thioxo-5,6,11,11a-tetrahydro-1H-imidazo[1′,5′:1,6]pyrido[3,4-b]indol-2(3H)-yl)propanoic acid]
4 | < 500 | O=C1NC(=S)N2Cc3c(c4ccccc4n3Cc3ccc(F)cc3)C[C@@H]12 [Compound E2, (S)-6-(4-fluorobenzyl)-3-thioxo-2,3,5,6,11,11a-hexahydro-1H-imidazo[1′,5′:1,6]pyrido[3,4-b]indol-1-one]
5 | < 500 | COc1ccc(Cn2c3c(c4ccccc42)C[C@H]2C(=O)N(CCC(=O)O)C(=O)N2C3)cc1 [Compound 1-131, (S)-3-(6-(4-methoxybenzyl)-1,3-dioxo-11,11a-dihydro-1H-imidazo[1′,5′:1,6]pyrido[3,4-b]indol-2(3H,5H,6H)-yl)propanoic acid]
6 | < 500 | O=C1NC(=S)N2Cc3c(c4cccnc4n3Cc3ccc(F)cc3)CC12 (stereo not drawn) [Compound E3]
7 | < 500 | O=C1C2Cc3c(n(Cc4ccc(F)cc4)c4ccccc34)CN2C(=O)N1CCO (stereo not drawn) [Compound 1-121, 6-(4-fluorobenzyl)-2-(2-hydroxyethyl)-5,6,11,11a-tetrahydro-1H-imidazo[1′,5′:1,6]pyrido[3,4-b]indole-1,3(2H)-dione]
8 | < 500 | CN1C(=O)C2Cc3c(n(Cc4ccc(F)cc4)c4ccccc34)CN2C1=O (racemic) [Compound 1-129, 6-(4-fluorobenzyl)-2-methyl-5,6,11,11a-tetrahydro-1H-imidazo[1′,5′:1,6]pyrido[3,4-b]indole-1,3(2H)-dione]
9 | < 500 | O=C(O)CCN1C(=O)[C@@H]2Cc3c(n(Cc4ccc(F)cc4F)c4ccccc34)CN2C1=O [Compound 1-134, (S)-3-(6-(2,4-difluorobenzyl)-1,3-dioxo-11,11a-dihydro-1H-imidazo[1′,5′:1,6]pyrido[3,4-b]indol-2(3H,5H,6H)-yl)propanoic acid]
10 | < 500 | O=C(O)CCN1C(=O)[C@@H]2Cc3c(n(Cc4ccc(F)nc4)c4ccccc34)CN2C1=O [Compound 1-135, (S)-3-(6-((6-fluoropyridin-3-yl)methyl)-1,3-dioxo-11,11a-dihydro-1H-imidazo[1′,5′:1,6]pyrido[3,4-b]indol-2(3H,5H,6H)-yl)propanoic acid]
11 | < 500 | CC(C)(CN1C(=O)C2Cc3c(n(Cc4ccc(F)cc4)c4ncccc34)CN2C1=O)C(=O)O (stereo not drawn) [Compound C111, 3-{8-[(p-fluorophenyl)methyl]-12,14-dioxo-6.8.11.13-tetrazatetracyclo[7.7.0.02,7.011,15]hexadeca-1(9),2(7),3,5-tetraene-13-yl}-2,2-dimethyl propionic acid]

More lines, now with the values behind:

Row | Structure (SMILES) | IC50 [nM]
12 | CC(C)(CN1C(=O)[C@@H]2Cc3c(n(Cc4ccc(F)cc4)c4ccccc34)CN2C1=O)C(=O)O [Compound 1-30, (S)-3-(6-(4-fluorobenzyl)-1,3-dioxo-5,6,11,11a-tetrahydro-1H-imidazo[1′,5′:1,6]pyrido[3,4-b]indol-2(3H)-yl)-2,2-dimethylpropanoic acid] | < 500
13 | O=C(O)CN1C(=O)C2Cc3c(n(Cc4ccc(F)cc4)c4ccccc34)CN2C1=O (stereo not drawn) [Compound 1-19, 2-(6-(4-fluorobenzyl)-1,3-dioxo-5,6,11,11a-tetrahydro-1H-imidazo[1′,5′:1,6]pyrido[3,4-b]indol-2(3H)-yl)acetic acid] | < 500
14 | O=C1NCC2Cc3c(n(Cc4ccc(F)cc4)c4ccccc34)CN12 (racemic) [Compound 1-13, 6-(4-fluorobenzyl)-5,6,11,11a-tetrahydro-1H-imidazo[1′,5′:1,6]pyrido[3,4-b]indol-3(2H)-one] | < 500
15 | O=C1OC[C@@H]2Cc3c(n(Cc4ccc(F)cc4)c4ccccc34)CN12 [Compound 1-9, (S)-6-(4-fluorobenzyl)-5,6,11,11a-tetrahydrooxazolo[3′,4′:1,6]pyrido[3,4-b]indol-3(1H)-one] | < 500
16 | CN1CC2Cc3c(n(Cc4ccc(F)cc4)c4ccccc34)CN2C1=O (racemic) [Compound 1-14, 6-(4-fluorobenzyl)-2-methyl-5,6,11,11a-tetrahydro-1H-imidazo[1′,5′:1,6]pyrido[3,4-b]indol-3(2H)-one] | < 500
17 | CC1(C)c2c(n(Cc3ccc(F)cc3)c3ccccc23)CN2C(=O)NC(=O)C21 (single isomer, unassigned) [A110 ent A, 6-(4-fluorobenzyl)-11,11-dimethyl-5,6,11,11a-tetrahydro-1H-imidazo[1′,5′:1,6]pyrido[3,4-b]indole-1,3(2H)-dione] | < 500
18 | O=C(O)CCN1CC2Cc3c(n(Cc4ccc(F)cc4)c4ccccc34)CN2C1=O (stereo not drawn) [Compound 1-21, 3-(6-(4-fluorobenzyl)-3-oxo-11,11a-dihydro-1H-imidazo[1′,5′:1,6]pyrido[3,4-b]indol-2(3H,5H,6H)-yl)propanoic acid] | < 500
19 | COc1ccc(Cn2c3c(c4ccccc42)C[C@H]2C(=O)N(CCC(=O)O)C(=O)N2C3)cn1 [Compound 1-12, (S)-3-(6-((6-methoxypyridin-3-yl)methyl)-1,3-dioxo-11,11a-dihydro-1H-imidazo[1′,5′:1,6]pyrido[3,4-b]indol-2(3H,5H,6H)-yl)propanoic acid] | < 500
20 | CC1(C)c2c(n(Cc3ccc(F)cc3)c3ccccc23)CN2C(=O)NC(=O)C21 (single isomer, unassigned) [A110 ent B, 6-(4-fluorobenzyl)-11,11-dimethyl-5,6,11,11a-tetrahydro-1H-imidazo[1′,5′:1,6]pyrido[3,4-b]indole-1,3(2H)-dione] | < 500
21 | O=C(O)CN1CC2Cc3c(n(Cc4ccc(F)cc4)c4ccccc34)CN2C1=O (racemic) [Compound 1-20, 2-(6-(4-fluorobenzyl)-3-oxo-11,11a-dihydro-1H-imidazo[1′,5′:1,6]pyrido[3,4-b]indol-2(3H,5H,6H)-yl)acetic acid] | 500 to 1000
22 | COc1ccc(Cn2c3c(c4ccccc42)C[C@H]2C(=O)N(CC4(C(=O)O)CC4)C(=O)N2C3)cn1 [Compound 1-18, (S)-1-((6-((6-methoxypyridin-3-yl)methyl)-1,3-dioxo-5,6,11,11a-tetrahydro-1H-imidazo[1′,5′:1,6]pyrido[3,4-b]indol-2(3H)-yl)methyl)cyclopropane-1-carboxylic acid] | < 500
23 | O=C(O)CCN1CC(=O)N2Cc3c(c4ccccc4n3Cc3ccc(F)cc3)CC2C1=O (stereo not drawn) [Compound 1-24, 3-(7-(4-fluorobenzyl)-1,4-dioxo-3,4,6,7,12,12a-hexahydropyrazino[1′,2′:1,6]pyrido[3,4-b]indol-2(1H)-yl)propanoic acid] | < 500
24 | O=C1OCC2Cc3c(n(Cc4ccc(F)cc4)c4ccccc34)CN12 (stereo not drawn) [Compound 1-8, 6-(4-fluorobenzyl)-5,6,11,11a-tetrahydrooxazolo[3′,4′:1,6]pyrido[3,4-b]indol-3(1H)-one] | < 500
